Reference: patent US7772188B2, “Methods and compositions for the treatment of gastrointestinal disorders” (priority 2003, dated 2010)
No end group written: not given here.

Experiments:
gastrointestinal transit = assay: Murine gastrointestinal transit (GIT) assay, charcoal front; format: in vivo, mice; settings: for gastrointestinal transit rate: SEQ ID NO:4 and Zelnorm 0.1 mg/kg, FIG. 3a/3b; for intestinal transit rate versus dosage: recombinantly synthesized peptides, FIG. 4a
Experimental: In order to determine whether the peptides increase the rate of gastrointestinal transit, the peptides and controls were tested using a murine gastrointestinal transit (GIT) assay (Moon et al. Infection and Immunity 25:127, 1979). In this assay, charcoal, which can be readily visualized in the gastrointestinal tract is administered to mice after the administration of a test compound. The distance traveled by the charcoal is measured and expressed as a percentage of the total length of the […].
Mice were fasted with free access to water for 12 to 16 hours before the treatment with peptide or control buffer. The peptides were orally administered at 1 μg/kg-1 mg/kg of peptide in buffer (20 mM Tris pH 7.5) 7 minutes before being given an oral dose of 5% Activated Carbon (Aldrich 242276-250G). Control mice were administered buffer only before being given a dose of Activated Carbon. After 15 minutes, the mice were sacrificed and their intestines from the stomach to the cecum were dissected. The total length of the intestine as well as the distance traveled from the stomach to the charcoal front was measured for each animal and the results are expressed as the percent of the total length of the intestine traveled by the charcoal front. All results are reported as the average of 10 mice±standard deviation. A comparison of the distance traveled by the charcoal between the mice treated with peptide versus the mice treated with vehicle alone was performed using a Student's t test and a statistically significant difference was considered for P<0.05. P-values are calculated using a two-sided T-Test assuming unequal variances.
The identical experiment was performed to determine if SEQ ID NO:3 is effective in a chronic dosing treatment regimen. Briefly, 8 week old CD1 female mice are dosed orally once a day for 5 days with either SEQ ID NO:3 (0.06 mg/kg or 0.25 mg/kg in 20 mM Tris pH 7.5) or vehicle alone (20 mM Tris pH 7.5). On the 5th day, a GIT assay is performed identical to that above except 200 μl of a 10% charcoal solution is administered. […] The results are shown side by side with acute dosing (1 day).

intestinal secretion = assay: Suckling mouse model of intestinal secretion (SuMi assay); format: in vivo; settings: suckling mice
Experimental: In this model a test compound is administered to suckling mice that are between 7 and 9 days old. After the mice are sacrificed, the gastrointestinal tract from the stomach to the cecum is dissected (“guts”). The remains (“carcass”) as well as the guts are weighed and the ratio of guts to carcass weight is calculated. If the ratio is above 0.09, one can conclude that the test compound increases intestinal secretion. […] The effect of Zelnorm® was also studied.

intestinal GC-C receptor = biological target: T1, intestinal GC-C receptor (Homo sapiens, UniProt P25092); assay: Intestinal GC-C receptor activity assay (cyclic GMP by EIA in T84 cells); format: cell-based; settings: chemically synthesized peptides, FIG. 2
T1 construct: host or cells: T84 human colon carcinoma cells
T1 sequence (P25092 24-1073): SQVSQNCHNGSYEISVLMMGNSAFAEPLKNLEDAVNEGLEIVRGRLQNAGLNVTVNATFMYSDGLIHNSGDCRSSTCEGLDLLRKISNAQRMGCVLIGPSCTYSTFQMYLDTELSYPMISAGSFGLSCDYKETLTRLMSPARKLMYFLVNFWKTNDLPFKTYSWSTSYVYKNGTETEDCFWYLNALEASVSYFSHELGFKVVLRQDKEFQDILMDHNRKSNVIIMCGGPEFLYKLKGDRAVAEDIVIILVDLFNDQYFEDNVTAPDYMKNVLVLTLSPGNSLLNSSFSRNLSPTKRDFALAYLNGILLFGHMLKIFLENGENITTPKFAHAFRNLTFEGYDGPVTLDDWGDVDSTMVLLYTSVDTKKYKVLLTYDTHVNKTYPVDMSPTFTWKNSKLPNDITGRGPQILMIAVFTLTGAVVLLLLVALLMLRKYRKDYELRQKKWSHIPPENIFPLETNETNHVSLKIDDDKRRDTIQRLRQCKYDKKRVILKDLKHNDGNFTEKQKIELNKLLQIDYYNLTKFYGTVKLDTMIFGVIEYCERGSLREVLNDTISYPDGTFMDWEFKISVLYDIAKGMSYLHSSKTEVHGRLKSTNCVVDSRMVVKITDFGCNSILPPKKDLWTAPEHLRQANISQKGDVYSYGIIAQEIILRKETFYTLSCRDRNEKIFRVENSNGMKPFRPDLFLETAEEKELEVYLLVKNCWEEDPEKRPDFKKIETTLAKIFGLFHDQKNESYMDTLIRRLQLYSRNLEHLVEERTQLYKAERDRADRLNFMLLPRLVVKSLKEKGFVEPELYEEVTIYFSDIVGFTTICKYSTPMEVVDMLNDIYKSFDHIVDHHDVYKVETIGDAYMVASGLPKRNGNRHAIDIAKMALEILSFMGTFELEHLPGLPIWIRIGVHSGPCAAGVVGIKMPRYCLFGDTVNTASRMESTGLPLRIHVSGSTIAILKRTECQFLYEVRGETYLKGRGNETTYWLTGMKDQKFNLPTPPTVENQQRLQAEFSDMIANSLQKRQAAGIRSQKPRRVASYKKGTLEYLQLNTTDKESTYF
Experimental: The ability of SEQ ID NO:5, SEQ ID NO:4, and SEQ ID NO:3 to activate the intestinal GC-C receptor was assessed in an assay employing the T84 human colon carcinoma cell line (American Type Culture Collection (Bethesda, Md.)). For the assays cells were grown to confluency in 24-well culture plates with a 1:1 mixture of Ham's F12 medium and Dulbecco's modified Eagle's medium (DMEM), supplemented with 5% fetal calf serum and were used at between passages 54 and 60.
Briefly, monolayers of T84 cells in 24-well plates were washed twice with 1 ml/well DMEM, then incubated at 37° C. for 10 min with 0.45 ml DMEM containing 1 mM isobutylmethylxanthine (IBMX), a cyclic nucleotide phosphodiesterase inhibitor. Test peptides (50 μl) were then added and incubated for 30 minutes at 37° C. The media was aspirated and the reaction was then terminated by the addition of ice cold 0.5 ml of 0.1N HCl. The samples were held on ice for 20 minutes and then evaporated to dryness using a heat gun or vacuum centrifugation. The dried samples were resuspended in 0.5 ml of phosphate buffer provided in the Cayman Chemical Cyclic GMP EIA kit (Cayman Chemical, Ann Arbor, Mich.). Cyclic GMP was measured by EIA according to procedures outlined in the Cayman Chemical Cyclic GMP EIA kit.

[1] = biological target: T2, GC-C receptors found in rat intestinal mucosa (Rattus norvegicus, UniProt P23897); parameters: Intestinal mucosa was extruded from the intestine by gentle pressure; from tissue; host or cells: rat small-intestinal epithelial cells (mucosa), used as a cell suspension; settings: same assay, observed by Giannella et al.; cited from earlier work
T2 sequence (P23897 23-1072): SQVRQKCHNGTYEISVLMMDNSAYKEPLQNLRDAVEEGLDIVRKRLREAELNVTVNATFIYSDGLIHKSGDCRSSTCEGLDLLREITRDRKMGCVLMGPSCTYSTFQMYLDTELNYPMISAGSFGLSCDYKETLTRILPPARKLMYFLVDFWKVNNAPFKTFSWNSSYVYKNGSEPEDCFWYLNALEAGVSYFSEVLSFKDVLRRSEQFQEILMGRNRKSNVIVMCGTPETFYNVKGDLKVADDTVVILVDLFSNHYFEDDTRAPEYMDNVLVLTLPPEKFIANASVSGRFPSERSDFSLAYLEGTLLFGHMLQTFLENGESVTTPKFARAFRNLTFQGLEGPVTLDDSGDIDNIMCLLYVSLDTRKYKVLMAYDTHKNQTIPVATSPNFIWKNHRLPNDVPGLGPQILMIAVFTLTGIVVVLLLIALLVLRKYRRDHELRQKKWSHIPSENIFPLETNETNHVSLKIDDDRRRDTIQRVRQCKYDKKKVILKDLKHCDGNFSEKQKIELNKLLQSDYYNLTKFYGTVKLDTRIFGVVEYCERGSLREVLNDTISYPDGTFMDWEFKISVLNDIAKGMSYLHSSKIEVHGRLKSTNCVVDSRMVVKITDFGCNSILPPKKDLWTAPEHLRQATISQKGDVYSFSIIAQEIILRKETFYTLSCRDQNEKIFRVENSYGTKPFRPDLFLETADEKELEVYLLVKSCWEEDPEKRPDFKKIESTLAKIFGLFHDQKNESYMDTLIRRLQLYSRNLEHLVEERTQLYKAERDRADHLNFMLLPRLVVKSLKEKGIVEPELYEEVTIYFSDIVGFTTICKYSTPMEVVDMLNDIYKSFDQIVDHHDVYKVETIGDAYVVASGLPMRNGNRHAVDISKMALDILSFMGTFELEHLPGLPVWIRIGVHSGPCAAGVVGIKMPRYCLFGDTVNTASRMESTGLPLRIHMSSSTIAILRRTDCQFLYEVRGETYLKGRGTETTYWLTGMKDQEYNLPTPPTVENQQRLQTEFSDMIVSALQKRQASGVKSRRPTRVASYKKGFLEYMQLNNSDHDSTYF

PBQ-induced writhing = assay: Phenylbenzoquinone (PBQ)-induced writhing model
[2] = recombinant peptides, dose response, FIG. 6a

Molecule	gastrointestinal transit rate (gastrointestinal transit; acute, oral, mice)	effect in mouse gastrointestinal motility assay upon chronic dosing (gastrointestinal transit; oral once a day for 5 days, CD1 female mice, FIG. 4c)	intestinal secretion (guts to carcass weight ratio) (intestinal secretion; 0.2 mg/kg, FIG. 5)	intestinal transit rate versus Tris buffer or equivalent dose of Zelnorm (gastrointestinal transit; acute, oral, mice, chemically synthesized peptides, FIG. 4b)	intestinal transit rate versus dosage (gastrointestinal transit; acute, oral, mice)	activity in GC-C receptor activity assay (intestinal GC-C receptor)	intestinal secretion (guts to carcass weight ratio) (intestinal secretion; dose response, FIG. 5a/5b)	intestinal secretion (guts to carcass weight ratio) (intestinal secretion; [2])	Kd [1] [nM]	antinociceptive effect relative to indomethacin (PBQ-induced writhing; mouse PBQ writhing, visceral pain model)	writhings compared to the vehicle control (PBQ-induced writhing; mouse, oral, 1 mg/kg dose, FIG. 8a)
[H]/N=C(/NCCCCC)N/N=C/c1c[nH]c2ccc(OC)cc12 [Zelnorm®, tegaserod]	increase gastrointestinal transit rate	effective	does not increase intestinal secretion								
NSSNYCCELCCNPACTGCY [SEQ ID NO:4, Asn Ser Ser Asn Tyr Cys Cys Glu Leu Cys Cys Asn Pro Ala Cys Thr Gly Cys Tyr]	increase gastrointestinal transit rate			increase intestinal transit rates more than either Tris buffer alone or an equivalent dose of Zelnorm®	intestinal transit rate increases with an increasing dosage	activity comparable to SEQ ID NO:4	increase intestinal secretion	increase intestinal secretion	~13		
NSSNYCCEYCCNPACTGCY (cysteine pairing not given here) [SEQ ID NO:5]					intestinal transit rate increases with an increasing dosage			increase intestinal secretion		antinociceptive effects in this visceral pain model comparable to the intermediate doses of indomethacin	Significant reductions in writhings
